Source: patent US12600943B2, “Innervated organoid compositions and methods of making same” (priority 2019, dated 2026)

Legend:
Type in all cases: cell-based, human
hPSC-derived NC cells [1] = assay: Single-cell RNA-seq clustering of hPSC-derived NC cells; conditions: SAG treatment groups (day 0-4, day 0-10)
Excerpt: To understand how HH signaling influences the topology of the neuronal differentiation path of NC, Applicant profiled additional 1,146 single-cell transcriptomes of NC cells with the constant (day 0-10) or early-phase (day 0-4) SAG treatment and NC-derived neurons sampled from day 32 of differentiation as shown in FIG. 4A. Together with 392 control NC cells, a total of 1,538 individual cells were sequenced with 5844 median genes and 1.16 million mean confident mapped reads per cell (FIG. 8). […]
Bulk and single-cell (sc) RNA sequencing were performed at the Centre of Genomic Science, The University of Hong Kong. […] Then, 1 μl of cDNA was checked and quantified on an Agilent Bioanalyzer high-sensitivity DNA chip. […] Libraries were checked and quantified on an Agilent Bioanalyzer high-sensitivity DNA chip (size range 150-2000 bp) and by Qubit dsDNA BR (Molecular Probes). […]
Fastq files with paired-end reads were aligned to the ENSEMBL GRCh38 (release 90, https://www.ensembl.org/) human transcriptome using Bowtie2 v2.3.4.1 (Langmead and Salzberg, 2012) with options ‘—sensitive—mp 1,1—np 1—score-min L,0,-0.1-I 1-X 2000—no-mixed—no-discordant-N 1-L 25-k 200’ which allows one mismatch during sequence alignment. Quality control of the reads of each cell was assessed using FastQC v0.11.6 (FIG. 8). Gene expression level was quantified using TPM values generated by RSEM v1.3.0 (Li and Dewey, 2011). […]

hPSCs = assay: Early-phase lineage immunocytochemistry during NC induction (SOX2+NANOG-, SNAIL+, TUJ1+/TH+)
[2] = system: hPSCs (hPSC-to-NC transition); assay: hPSC-to-NC differentiation, flow cytometry of HNK-1+ p75NTR+ cells; conditions: for percentage of HNK-1+ p75NTR+ cells (NC yield): flow cytometry at day 10
HCOs+ENCCs = assay: Innervated HCO model, immunostaining of neurons
hPSC-derived NC cells [3] = assay: In vitro neuronal differentiation of FACS-sorted NC cells, immunocytochemistry; conditions: NC^SAG0-10 cells, day 22 of differentiation
Excerpt: On the other hand, NC^SAG0-10 cells could grow and expand as competently as the control cells. Applicant then examined the differentiation potential of NC^SAG0-10 cells on the basis of their neuronal differentiation capability, as monitored by the expression of pan-neuronal markers (HU, TUJ1 and PGP9.5) and subtype markers, such as tyrosine hydroxylase (TH) for dopaminergic neurons and vasoactive intestinal polypeptide (VIP) for cholinergic neurons, which are the major subtypes of nerve cells found in the ENS.
Around 40 thousand FACS-enriched NC cells were seeded as droplets on poly-ornithine/laminin/fibronectin (PO/LM/FN)-coated 24 well plate in N2 medium containing 10 ng/ml FGF2, 3 μM CHIR99021 and 10 μM Y-27632. […]
For immunocytochemistry, the cells were fixed with 4% paraformaldehyde in PBS at room temperature for 30 min, followed by blocking with 1% bovine serum albumin (BSA) (Thermo Scientific, 23209) with or without 0.1% Triton X-100 (Sigma, T8787) in PBS buffer. […] Quantitative image analysis of differentiated neuronal cultures was performed with ImageJ. A minimum of 4,000 cells were analyzed per sample. Percentages of neuronal cells were measured over the total number of cells (DAPI) and the values reported in bar charts represent the mean±SEM.

[4] = system: ENCC-derived neurons in HCO explants; assay: Ex vivo neuromuscular coupling test of HCO muscle strips (DMPP stimulation)
HCOs+ENCCs explants = assay: Electrical-field stimulation (EFS) of explanted innervated HCO kidney grafts

CNC1CCC(N(Cc2cccc(-c3ccncc3)c2)C(=O)c2sc3ccccc3c2Cl)CC1 (stereo not shown) [SAG]
proportion of SAG-specific NC intermediates (Clusters 6 & 7; SOX10-, PHOX2B+, TUBB3high) in total population (hPSC-derived NC cells [1]): up to 75% | number of SOX2+NANOG- cells (ectoderm lineage commitment) (hPSCs; brief activation in early phase of NC induction, day 4 of differentiation): increases the number | formation of NC-like cells (SNAIL+) (hPSCs; longer SAG treatment (4 days)): emerged as early as day 4 | NC-to-neuron transition (hPSCs; prolonged (day 0-10) or late-phase (day 4-10) SAG treatment): boosted the NC-to-neuron transition | percentage of HNK-1+ p75NTR+ cells (NC yield) ([2]; SAG 1 μM, days 0-10 (constant), untreated 19.6±0.51%): 42.5±9.3% | percentage of HNK-1+ p75NTR+ cells (NC yield) ([2]; SAG added 4 days in early phase (day 0-4)): up to 44.6±9.1% | mature neurons expressing PGP9.5 and NF vs control (HCOs+ENCCs; HCO+ENCCs^SAG0_10 explants): more mature neurons | TUJ1+ and TH+ cells aligned with epithelial cells of HCOs vs control (HCOs+ENCCs; HCOs with ENCCs^SAG0_10 in vitro (Day 28)): more TUJ1^+ and TH^+ cells | survival and engraftment efficiency of ENCCs to HCOs (HCOs+ENCCs; SAG treatment during NC induction): greatly improves | numbers of TH+ and VIP+ neurons compared to control (hPSC-derived NC cells [3]): Significantly greater numbers | contractile responses to DMPP compared to HCO+ENCC ([4]; HCO+ENCC^SAG0_10): stronger contractile responses | EFS-induced wave-like contractions compared to HCO+ENCC group (HCOs+ENCCs explants; HCO+ENCC^SAG0_10 explants (ENCCs derived with SAG day 0-10)): more profound series of wave-like contractions

NC1=N[C@H](O)[C@H]2[C@H]3O[C@]4(O)O[C@@H]([C@@H](O)[C@@]2(N1)[C@@H]4O)[C@]3(O)CO [TTX, tetrodotoxin]
DMPP-induced muscle contraction [4]: completely abolished | EFS-induced contractions (HCOs+ENCCs explants): completely inhibited | contractile activity triggered by low-voltage stimulation (HCOs+ENCCs explants): completely inhibited

CC1=C2C[C@H]3[C@@H](CC=C4C[C@@H](O)CC[C@@]43C)[C@@H]2CC[C@]12O[C@@H]1C[C@H](C)CN[C@H]1[C@H]2C [cyclopamine]
hPSC-to-NC transition (percentage of HNK-1+p75NTR+ cells) [2]: dramatically suppressed
